Source: patent US11867689B2, “Engineered renal tissues, arrays thereof, and methods of making the same” (Organovo, Inc., priority 2014, dated 2024)

Experiments:
[1] = test system: 3D renal tubule model (interstitial tissue and epithelial tissue); type: cell-based, human
3D renal tubule model [2] = type: cell-based, human
Text: To reduce the thickness and cellularity of the interstitial layer, the cell ratio was changed to 50% fibroblasts/50% HUVEC the concentration of the cells was 1.25×10^8 cells/mL. The interstitial layer of the renal proximal tubule model is composed of renal fibroblasts and HUVECs in Novogel® 2.0. […] E-cadherin (green) at the lateral membranes between RPTECs corresponds to tight junctions (FIGS. 9A, B and C). Further, the basement membrane corresponding to the interstitial layer produces collagen (FIGS. 9A and B; stained with red). H & E staining is shown (FIG. 10A), and brush borders are indicated (FIG. 11A, arrows). Trichrome staining indicates collagen secretion (FIGS. 10B, blue and 11B, arrows), and CD31 staining indicates the presence of HUVEC networks (FIG. 12, asterisks). […] As a positive control, hTERT-RPTEC cells cultured as a monolayer in 2D were assessed. As a negative control, bioprinted renal interstitial tissues without epithelium were also assayed to verify that the detected GGT activity was epithelial-specific. At culture day 3, 10, 14, 21, or 28, 2D hTERT-RPTEC, 3D interstitium tissues, or 3D bioprinted tubule tissues were homogenized and assessed for functional GGT enzymatic activity using a colorimetric assay available from Sigma-Aldrich. […]

[3] = test system: interstitial tissue alone
[4] = test system: epithelial layer comprising primary cells (070615-RPTEC); assay: GGT activity, renal tubule model with primary epithelial layer; type: cell-based, human; conditions: primary cells (070615-RPTEC) compared with hTERT-RPTEC; FIG. 23B
Method: To assess the maturity and function of the epithelial component of the 3D bioprinted tubule model, tissues were homogenized and assayed for gamma glutamyl-transferase (GGT) activity. […] As a positive control, hTERT-RPTEC cells cultured as a monolayer in 2D were assessed. […] At culture day 3, 10, 14, 21, or 28, 2D hTERT-RPTEC, 3D interstitium tissues, or 3D bioprinted tubule tissues were homogenized and assessed for functional GGT enzymatic activity using a colorimetric assay available from Sigma-Aldrich.

3D renal tubule model [5] = assay: histology of treated 3D renal tubule models; type: cell-based, human; conditions: 50 ng/mL TGFβ; FIG. 22D

| Compound | toxicity by alamarBlue assay [1] | GGT activity (3D renal tubule model [2]) | toxicity by alamarBlue assay [3] | sensitivity in the GGT assay, primary versus immortalized cells [4] | Masson's trichrome staining histology (fibrosis) (3D renal tubule model [5]) |
| --- | --- | --- | --- | --- | --- |
| C[C@@H]1[C@H](O)[C@@H](C)/C=C/C=C/C=C/C=C/C=C/C=C/C=C/[C@H](O[C@@H]2O[C@H](C)[C@@H](O)[C@H](N)[C@@H]2O)C[C@@H]2O[C@](O)(C[C@@H](O)C[C@@H](O)[C@H](O)CC[C@@H](O)C[C@@H](O)CC(=O)O[C@H]1C)C[C@H](O)[C@H]2C(=O)O [AmpB, amphotericin B] | dose dependent cytotoxicity | dose dependent reduction in GGT activity | resistant |  |  |
| N.N.[Cl][Pt][Cl] [cisplatin] |  | dose dependent reduction in GGT activity |  | enhanced sensitivity |  |
| TGFβ: listed among common cytotoxic agents; treatment at 50 ng/mL increased fibrosis |  |  |  |  | increase in fibrosis without the overt cell death |
